# What was measured:
# [1] = tested on: LOXL1 regulatory elements (promoter region of the LOXL1 gene); assay: LOXL1 promoter luciferase-reporter assay in transfected fibrosarcoma cells; type: cell-based, human; settings: 1 μg/ml, 24 h, HTI080 cells, triplicate tests, p<0.05
# Text: Vector construction, transfection and expression: The promoter region of the LOXL1 gene was isolated and cloned into the pGL3 Luciferase reporter plasmid (Promega) by standard methods known in the art and according to manufacturer's instructions. The LOXL1/pGL3 vector and the control vector pRL-NULL (Promega), containing no regulatory elements, were contransfected into the human fibrosarcoma line HTI080 using LipofectAMINE™ LTX Reagent (Invitrogen) according to manufacturer's directions.
# Transfected cells were allowed to recover for 24 h. The culture medium was then replaced with fresh medium containing various concentrations of L-4 Thiazolylalanine, and the transfected cells cultured for an additional 24 h.
# The cultures were subsequently washed with PBS and exposed to 100 μl cell lysis buffer/25 cm^2 culture area and gently shaken at room temperature for 30 min. The culture flasks containing the cell lysate were then immediately placed at −80° C.
# The activity of the reporter gene, firefly luciferase, was determined according to the manufacturer's instructions (Dual-Luciferase® Reporter Assay System, Promega). Briefly, the activity of the reporter gene is determined relative to that of a control vector encoding a second luciferase gene, that from Renilla reniformis. […]
# [2] = tested on: calcineurin; assay: Ex-vivo DiFMUP phosphatase assay of calcineurin activity; type: biochemical
# Experimental: Ex-vivo phosphatase assay: The modulation of calcineurin activity was monitored using a DiFMUP (6,8-difluoro-7-hydroxy-4-methylcoumarin phosphate) phosphatase assay well characterized in the art (see, e.g., Wegner et al., 2007, Methods Mol. Biol. 365:61-69, hereby incorporated by reference in its entirety). Dephosphorylation of DiFMUP leads to the formation of a highly fluorescent and stable product: […].
# Varying concentrations of L-4 Thiazolylalanine were added to a reaction buffer consisting of 50 mM Tris-HCL, pH 7.4, 0.0125% BSA, 0.1 mM CaCl, 400 U/ml calmodulin and 1 mM NiCl. The L-4 Thiazolylalanine/reaction buffer mixture was incubated at 37° C. for 30 min. DiFMU substrate was then added to a concentration of 10 μM, and the mixture returned to 37° C. incubation for a further 15 min. Fluorescence intensity was determined on a Spectrofluorometer.
# [3] = tested on: β1 integrin; assay: Whole cell ELISA of β1 integrin expression in human dermal fibroblasts; type: cell-based; settings: 0.01% (w/v), 24 hours
# Experimental: Cell culture: Human dermal fibroblasts (Cascade Biologics) were cultured in growth medium (DMEM, 5% FBS, 1% L-Glut, and 1% antibiotics) overnight in 60 mm dishes at 3.5×10^5 cells/ml. Cells were treated with test active or vehicle control diluted in growth medium and incubated for 24 hours at 37° C.
# Whole cell ELISA: A B1 integrin kit from Chemicon International was used to assay the expression of B1 integrin on the cell surface following treatment with L-4 thiazolylalanine Medium was aspirated and plates were incubated at 37° C. with Cell Dissociation Buffer (provided with the kit) for 20-25 minutes, cells were centrifuged and resuspended in DMEM without supplements. 100 μl of the cell suspension was added to microtiter plates precoated with a murine anti-human β1 antibody (Chemicon International) that had been blocked for non-specific binding, and the plates incubated at 37° C. for 2 h. Adherent cells were quantitated by a cell staining kit (Chemicon International) according to manufacturer's instructions. Briefly, plates were washed in PBS and adherent cells stained by incubation for 5 min. at room temperature in the kit staining solution. […] Extraction buffer was then added to each well and the plate read at 570 nm on a spectrophotometer.
# The percent change in β1 integrin expression was calculated according to the formula: […]
# [4] = tested on: fibronectin; assay: Competitive inhibition ELISA of fibronectin in conditioned media of human dermal fibroblasts; type: cell-based; settings: 72 hours, P < 0.05
# Experimental: Cell culture: Human dermal fibroblasts (Cascade Biologics) were cultured in 12-well tissue culture plates in growth medium (DMEM, 5% FBS, 1% L-Glut, and 1% antibiotics) and incubated for 24 hours at 37° C. Cells treated with test active diluted in growth medium and incubated for 72 hours at 37° C., after which conditioned media was collected and assayed for the presence of fibronectin. […].
# Competitive inhibition ELISA: The presence of fibronectin in the test samples was assayed by a competitive ELISA kit (Chemicon International). Briefly, test and control samples of conditioned media were incubated with a HRP-conjugated, rabbit polyclonal anti-human fibronectin antibody at room temperature for about 10 minutes. The sample/antibody mixture was then transferred to a microtiter plate precoated with a standard amount of human fibronectin that had been blocked for non-specific binding. The plate was incubated for one hour at room temperature, followed by a PBS wash and detection of bound antibody (i.e., detection of bound HRP) by routine methods known in the art. The amount of bound antibody is inversely proportional to the amount of fibronectin in the sample.
# The percent change in fibronectin expression due to L-4 Thiazolylalanine treatment was calculated according to the formula: […]
# [5] = tested on: human skin; assay: Human clinical patch study, histology of skin samples (Trichrome collagen and Alcian blue GAG staining); type: in vivo; settings: 0.01% solution, topical semi-occlusive patch on outer forearm, 15 applications
# Experimental: In order to ascertain the effect of L-4 thiazolylalanine on collagen levels in human skin in vivo, a test was conducted on about 25 women aged 35-65 years. This human clinical study was approved by an Institutional Review Board and informed consent from the subjects was obtained prior to commencement of the study. The study was conducted in accordance with Title 21 of the Code of Federal Regulations, parts 50 and 56.
# A solution of 0.01% L-4 Thiazolylalanine was made up in a vehicle of Propylene glycol:Ethanol:Water at a ratio of 70:20:10. The experimental design of the test was as follows: Thiazolylalanine solution or the vehicle solution without thiazolylalanine was applied to the outer forearm on a 2×2 area of skin (@2 mg/cm2) under a semi-occlusive patch for 24 hours, after which the patch was removed and a fresh patch was applied. This was repeated for 5 days (Monday-Friday), then subjects were rested for the weekend. Patch application was continued in the same manner for the next two weeks, for a total of 15 applications. […] The intensity of the collagen and GAG staining was assessed visually under the microscope. […]
# [6] = tested on: CGRP; assay: CGRP enzyme immunoassay of conditioned medium of PC-12 cells; type: cell-based, rat; settings: 0.01%, 24 h, p<0.05
# Experimental: Cell culture: PC-12 cells were cultured in FK12 medium supplemented with nerve growth factor according to routine methods known in the art. PC12 cells are derived from a rat pheochromocytoma and terminally differentiate on exposure to nerve growth factor. Once the cells begin to differentiate, they express CGRP. Cultures were incubated in medium containing L-4 Thiazolylalanine for another 24 h. after which conditioned medium was collected and assayed for the presence of CGRP.
# CGRP Immunoassay: The presence of CGRP in the test samples was assayed by a sandwich ELISA immunoassay kit. Briefly, test and control samples of conditioned media are mixed with an anti-CGRP antibody conjugated to acetylcholinesterase (the “tracer antibody”), and the mixtures added to plates pre-coated with a monoclonal anti-CGRP antibody (binding to a different epitope of CGRP than the tracer antibody) that had been blocked for non-specific binding. The samples were incubated in the plates and the plates washed and the bound acetylcholinesterase activity determined using Ellman's reagent according to routine methods known in the art. The absorbance of the reagent is directly proportional to the concentration of CGRP in the sample.
# The percent change in CGRP expression due to L-4 Thiazolylalanine treatment was calculated according to the formula: […]
smiles,measurement,setting,value
"N[C@@H](Cc1cscn1)C(=O)O [L-4 Thiazolylalanine, L-4-thiazolylalanine]",increase in expression of the reporter gene,[1],57%
same,increase of calcineurin activity,[2]; 0.0001% weight/volume (lowest concentration tested),6%
same,decrease of calcineurin activity,[2]; 0.001% concentration,11%
same,decrease of calcineurin activity,[2]; 0.01% concentration,63%
same,"IC-50 (calcineurin activity), estimated",[2]; estimated,~0.064%
same,increase in the expression of B1 integrin,[3],225%
same,Percent Change in fibronectin expression,[4]; Concentration 0.00001%,54.34% (P < 0.05)
same,Percent Change in fibronectin expression,[4]; Concentration 0.0001%,31.03% (P < 0.05)
same,Percent Change in fibronectin expression,[4]; Concentration 0.001%,36.11% (P < 0.05)
same,subjects with an increase in GAG staining relative to skin treated with the vehicle,[5]; 13/21 subjects,62%
same,subjects with increased collagen staining in treated sites versus vehicle treated site,[5]; 18/21 subjects,86%
same,increase in expression of CGRP,[6],69.93%
